The source of these data is patent US10509046B2, “Detection of indazole synthetic cannabinoids” (Randox Laboratories Limited, priority 2014, dated 2019).

The test system of this assay is AB-PINACA antibody (raised against immunogen 2 of Example 6). Nature of the assay: AB-PINACA ELISA, final validated kit with Tracer-2 (Example 10), specificity. To be noted: for % Cross-Reactivity: AB-PINACA N-Pentanoic acid = 100. The class given is binding. The method, then: A microtitre plates was precoated with AB-PINACA antibody (raised against immunogen 2 of Example 6). Pinaca derivative (antigen), if present in the sample competes with the horseradish peroxidase labelled AB-PINACA (enzyme labelled antigen, herein Tracer-2 of Example 8) for a limited number of antibody sites on the microtitre plate. After incubation at room temperature to allow a competition reaction to take place, the microtitre plate was washed to remove excess reagents. The enzyme substrate ([…]) was added. After an incubation period to allow maximum colour development, the colour reaction was stopped by the addition of acid. This produces a colour change from blue to yellow, and the absorbances are read at 450 nm. A standard curve was then constructed to determine the Pinaca derivative's concentration in the sample.
All reagents were left to reach room temperature (+15 to +25° C.) prior to use. In order to minimise edge effects microtitre plate was sealed with an adhesive plate sealer.
The assay was performed in duplicate. The following layout was used for a test plate where each box represents 2 wells.
• a) The following was pipetted into the appropriate wells of the microtitre plate:
• b) The microtitre plate was gently tapped plate from side to side for a few seconds. • c) The microtitre plate was covered with a plate sealer before incubating for 30 minutes at room temperature (+15 to +25° C.) in the dark. • d) The plate was inverted and the liquid was tapped out. • e) The plate was washed 6 times with diluted wash buffer (ensuring all wells were filled), over a 10-15 minute period. After the final wash the liquid was discarded and the plate was tapped onto lint free tissue paper until completely dry. • f) Immediately after washing, 125 μL of the one shot substrate II solution was pipetted into each well using a multichannel pipette. The microtitre plate was gently tapped from side to side and incubated for (20±2 minutes) at room temperature (+15 to +25° C.) in the dark. • g) The colour reaction was stopped by the addition of 100 μL of stop solution per well. A colour change from blue to yellow should be evident. • h) The optical density was measured at 450 nm within 10 minutes of stopping the colour reaction. The use of a 630 nm filter is recommended as the reference wavelength, if available. Standard Curve and Interpretation of Results • a) The mean absorbance of the standards, controls and samples were calculated. • b) The absorbances of standards against log10 (standard concentration) were plotted. • c) The control and sample concentrations were read from the standard curve. • d) To obtain concentrations for urine samples in ng/mL, the results were multiplied by 3 to take into account the dilution factor. • e) To obtain concentrations for whole blood samples in ng/mL, the results were multiplied by 4 to take into account the dilution factor. • f) It is recommended that a 4 parameter curve fit method is used when generating the standard curve. Limits of Detection

A value given as a limit tells only on which side of the number the result lay.

Consider `CC(C)C(NC(=O)c1nn(CCCC(O)CF)c2ccccc12)C(N)=O` (stereo not drawn), for which the “% Cross-Reactivity” value worked out at 24.1%.
In the case of `CC(C)(C)C(NC(=O)c1nn(CCCCCO)c2ccccc12)C(N)=O` (stereo not drawn), the “% Cross-Reactivity” value was found to be 15.2%.
The same measure, in the same setting: as for `CCCCCn1nc(C(=O)NC23CC4CC(CC(O)(C4)C2)C3)c2ccccc21` [3-OH AKB-48], the figure is less than 1%.
The same measure, in the same setting: for `CCCCCn1cc(C(=O)NC23CC4CC(CC(O)(C4)C2)C3)c2ccccc21` [3-OH SDB-001] the value was less than 1%; for `CC(O)CCCn1nc(C(=O)NC(C(N)=O)C(C)C)c2ccccc21` (stereo not drawn) [4-Hydroxypentyl AB-PINACA, 1-(4-hydroxypentyl) AB-Pinaca], 85.2%; for `CC(C)(C)C(NC(=O)c1nn(CCCCCF)c2ccccc12)C(N)=O` (stereo not drawn) [5-Fluoro ADB-PINACA], 9.8%.
The same measure, in the same setting: for `CC(C)(C)C(NC(=O)c1cn(CCCCCF)c2ccccc12)C(N)=O` (stereo not drawn) [5-Fluoro ADBICA] the value was 4.7%.
With `O=C(O)c1cn(CCCCCF)c2ccccc12` [5-fluoro PB-22 3-carboxyindole], the “Concentration of compounds that elicit a negative response at the indicated concentration” value (“Concentration” below) was 100 ng/mL.
The same measure, in the same setting: for `O=C(Oc1cccc2cccnc12)c1cn(CCCCCF)c2ccccc12` [5-fluoro PB-22] the value was 100 ng/mL.
The same measure, in the same setting: as for `O=C(O)CCCCn1cc(C(=O)C23CC4CC(CC(C4)C2)C3)c2ccccc21` [AB001 N-Pentanoic Acid], the figure is 100 ng/mL.
Consider `O=C(c1cn(CCCCCO)c2ccccc12)C12CC3CC(CC(C3)C1)C2` [AB-001 N-Pentanol], for which the “% Cross-Reactivity” value is given as less than 1%.
The same measure, in the same setting: as for `CC(C)[C@H](NC(=O)c1nn(CC2CCCCC2)c2ccccc12)C(N)=O` [AB-CHMINACA], the figure is 3.8%; as for `CC(C)C(NC(=O)c1nn(Cc2ccc(F)cc2)c2ccccc12)C(=O)O` (stereo not drawn) [AB-FUBINACA carboxylic acid], 4.5%.
The same measure, in the same setting: for `CCCCCn1nc(C(=O)NC(C(=O)O)C(C)C)c2ccccc21` (stereo not drawn) [AB-PINACA carboxylic acid] the value was less than 1%; for `CC(C)(C)C(NC(=O)c1nn(CCCCC(=O)O)c2ccccc12)C(N)=O` (stereo not drawn) [ADB-PINACA pentanoic acid metabolite], 32.8%; for `CCCCCn1cc(C(=O)NC(C(N)=O)C(C)(C)C)c2ccccc21` (stereo not drawn) [ADBICA], 0.7%.
Same read-out and setting: for `CC(O)CCCn1nc(C(=O)NC23CC4CC(CC(C4)C2)C3)c2ccccc21` (stereo not drawn) [AKB48 N-(4-hydroxypentyl) metabolite] the value was less than 1%; for `O=C(NC12CC3CC(CC(C3)C1)C2)c1nn(CCCCCO)c2ccccc12` [AKB48 N-(5-hydroxypentyl) metabolite], less than 1%.
Take `O=C(O)CCCCn1nc(C(=O)NC23CC4CC(CC(C4)C2)C3)c2ccccc21` [AKB48 N-Pentanoic acid metabolite]: the “% Cross-Reactivity” value was less than 1%.
`O=C(c1ccccc1I)c1cn(CCCCCF)c2ccccc12` [AM-694]: the “Concentration” value turned out to be 100 ng/mL.
On the same count and under the same terms, as for `O=C(c1cccc2ccccc12)c1cn(CCCCCF)c2cc(O)ccc12` [AM-2201 6-Hydroxyindole], the figure is 100 ng/mL.
Still for that read-out and setting: as for `O=C(c1cccc2ccccc12)c1cn(CCCCCF)c2ccccc12` [AM-2201], the figure is 100 ng/mL; as for `N#CCCCCn1cc(C(=O)c2cccc3ccccc23)c2ccccc21` [AM-2232], 100 ng/mL.
Still for that read-out and setting: as for `O=C(O)c1cn(CC2CCCCC2)c2ccccc12` [BB-22 3-Carboxyindole metabolite], the figure is 100 ng/mL; as for `O=C(Oc1cccc2cccnc12)c1cn(CC2CCCCC2)c2ccccc12` [BB-22], 100 ng/mL; as for `CC1(C)C(C(=O)c2cn(CC3CCOCC3)c3ccccc23)C1(C)C` [Hapten A-834735], 100 ng/mL.
For the compound `COc1ccccc1CC(=O)c1cn(CCCC(C)O)c2ccccc12` (stereo not drawn) [JWH 250 N-(4-hydroxypentyl) metabolite], the “Concentration” value worked out at 100 ng/mL.
`CCCCCn1c(C)c(C(=O)c2cccc3ccccc23)c2ccccc21` [JWH-007]: the “Concentration” value was determined as 100 ng/mL.
On the same count and under the same terms, for `CCCn1c(C)c(C(=O)c2cccc3ccccc23)c2ccccc21` [JWH-015] the value was 100 ng/mL; for `CCCCCn1cc(C(=O)c2cccc3ccccc23)c2c(O)cccc21` [JWH-018 4-Hydroxyindole], 100 ng/mL.
Same read-out and setting: for `CCCCCn1cc(C(=O)c2cccc3ccccc23)c2cc(O)ccc21` [JWH-018 5-Hydroxyindole] the value was 100 ng/mL.
The same measure, in the same setting: as for `CCCCCn1cc(C(=O)c2cccc3ccccc23)c2ccc(O)cc21` [JWH-018 6-Hydroxyindole], the figure is 100 ng/mL; as for `O=C(c1cccc2ccccc12)c1cn(CCCCCO)c2ccccc12` [JWH-018 N-(5-Hydroxypentyl)], 100 ng/mL; as for `O=C(O)CCCCn1cc(C(=O)c2cccc3ccccc23)c2ccccc21` [JWH-018 N-Pentanoic acid], 100 ng/mL.
Take `CCCCCn1cc(C(=O)c2cccc3ccccc23)c2ccccc21` [JWH-018]: the “Concentration” value was determined as 100 ng/mL.
Take `CCCCCCn1cc(C(=O)c2cccc3ccccc23)c2ccccc21` [JWH-019]: the “Concentration” value turned out to be 100 ng/mL.
For `CCCCn1cc(C(=O)c2cccc3ccccc23)c2c(O)cccc21` [JWH-073 4-Hydroxyindole], the “Concentration” value amounted to 100 ng/mL.
The same measure, in the same setting: as for `CCCCn1cc(C(=O)c2cccc3ccccc23)c2cc(O)ccc21` [JWH-073 5-Hydroxyindole], the figure is 100 ng/mL; as for `O=C(O)CCCn1cc(C(=O)c2cccc3ccccc23)c2ccccc21` [JWH-073 N-Butanoic acid], 100 ng/mL.
The same measure, in the same setting: for `O=C(c1cccc2ccccc12)c1cn(CCCCO)c2ccccc12` [JWH-073 N-Butanol] the value was 100 ng/mL; for `CCCCn1cc(C(=O)c2cccc3ccccc23)c2ccccc21` [JWH-073], 100 ng/mL; for `CCCCCn1cc(C(=O)c2ccc(OC)c3ccccc23)c2ccccc21` [JWH-081], 100 ng/mL.
`O=C(c1cccc2ccccc12)c1cn(CCN2CCOCC2)c2ccccc12` [JWH-200]: the “Concentration” value was 100 ng/mL.
Turning to `CCCCCn1cc(C(=O)Cc2ccccc2Cl)c2ccccc21` [JWH-203], the “Concentration” value was 100 ng/mL.
On the same count and under the same terms, as for `CCCCCn1cc(C(=O)c2ccc(CC)c3ccccc23)c2ccccc21` [JWH-210], the figure is 100 ng/mL.
